From ChEMBL document CHEMBL1140387, “1-Aryl-3,4-dihydro-1H-quinolin-2-one derivatives, novel and selective norepinephrine reuptake inhibitors” (Bioorg Med Chem Lett, 2005)
pKi: −log10 of the molar value.

Assays:
[1] = target: T1, Sodium-dependent dopamine transporter (Homo sapiens, UniProt Q01959); experiment: Inhibition of monoamine reuptake at dopamine transporter
[2] = target: T2, Sodium-dependent noradrenaline transporter (Homo sapiens, UniProt P23975); experiment: Inhibition of monoamine reuptake at norepinephrine transporter
[3] = target: T3, Sodium-dependent serotonin transporter (Homo sapiens, UniProt P31645); experiment: Percentage displacement of [3H]citalopram radioligand from serotonin transporter at concentration of 100 nM
Target sequence in this assay (P31645 whole entry, looked up): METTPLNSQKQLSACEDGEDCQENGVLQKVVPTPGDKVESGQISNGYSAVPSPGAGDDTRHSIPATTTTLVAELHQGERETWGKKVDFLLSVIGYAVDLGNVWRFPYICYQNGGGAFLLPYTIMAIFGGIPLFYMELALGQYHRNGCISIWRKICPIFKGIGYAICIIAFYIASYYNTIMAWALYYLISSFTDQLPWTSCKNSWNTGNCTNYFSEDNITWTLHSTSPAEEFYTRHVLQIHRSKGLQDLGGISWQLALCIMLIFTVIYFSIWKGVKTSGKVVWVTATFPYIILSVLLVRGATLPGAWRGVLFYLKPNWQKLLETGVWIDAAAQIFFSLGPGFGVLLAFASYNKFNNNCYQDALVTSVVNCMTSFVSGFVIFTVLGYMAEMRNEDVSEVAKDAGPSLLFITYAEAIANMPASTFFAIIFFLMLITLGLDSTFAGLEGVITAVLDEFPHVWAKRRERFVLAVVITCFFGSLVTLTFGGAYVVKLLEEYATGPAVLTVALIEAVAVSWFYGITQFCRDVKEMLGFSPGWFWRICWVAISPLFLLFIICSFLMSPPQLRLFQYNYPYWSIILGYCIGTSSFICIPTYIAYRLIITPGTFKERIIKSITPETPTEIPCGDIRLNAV

[4] = target: T3, Sodium-dependent serotonin transporter; experiment: Inhibition of monoamine reuptake at serotonin transporter
Target sequence in this assay (P31645 whole entry): as the sequence (P31645 whole entry, looked up) above

[5] = target: T1, Sodium-dependent dopamine transporter; experiment: Percentage displacement of [3H]WIN-35428 radioligand from dopamine transporter at concentration of 1000 nM
[6] = target: T2, Sodium-dependent noradrenaline transporter; experiment: Percentage displacement of [3H]nisoxetine radioligand from norepinephrine transporter at concentration of 1000 nM

T2 sequence (P23975 whole entry): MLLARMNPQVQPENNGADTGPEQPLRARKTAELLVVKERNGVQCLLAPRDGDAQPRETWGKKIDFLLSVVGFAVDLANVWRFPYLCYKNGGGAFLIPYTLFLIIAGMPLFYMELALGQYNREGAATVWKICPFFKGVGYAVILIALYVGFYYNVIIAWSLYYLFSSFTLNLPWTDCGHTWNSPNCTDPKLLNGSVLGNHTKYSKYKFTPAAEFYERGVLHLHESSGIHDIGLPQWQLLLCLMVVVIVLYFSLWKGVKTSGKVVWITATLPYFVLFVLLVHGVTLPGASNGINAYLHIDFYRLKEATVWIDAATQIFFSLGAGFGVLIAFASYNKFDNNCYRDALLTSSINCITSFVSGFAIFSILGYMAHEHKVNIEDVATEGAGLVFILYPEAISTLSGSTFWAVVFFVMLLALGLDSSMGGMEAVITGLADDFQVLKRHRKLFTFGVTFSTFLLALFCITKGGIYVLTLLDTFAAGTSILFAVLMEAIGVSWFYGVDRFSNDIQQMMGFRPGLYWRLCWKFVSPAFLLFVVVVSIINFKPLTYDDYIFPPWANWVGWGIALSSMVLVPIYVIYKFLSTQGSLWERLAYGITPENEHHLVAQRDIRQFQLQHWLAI
T1 sequence (Q01959 whole entry): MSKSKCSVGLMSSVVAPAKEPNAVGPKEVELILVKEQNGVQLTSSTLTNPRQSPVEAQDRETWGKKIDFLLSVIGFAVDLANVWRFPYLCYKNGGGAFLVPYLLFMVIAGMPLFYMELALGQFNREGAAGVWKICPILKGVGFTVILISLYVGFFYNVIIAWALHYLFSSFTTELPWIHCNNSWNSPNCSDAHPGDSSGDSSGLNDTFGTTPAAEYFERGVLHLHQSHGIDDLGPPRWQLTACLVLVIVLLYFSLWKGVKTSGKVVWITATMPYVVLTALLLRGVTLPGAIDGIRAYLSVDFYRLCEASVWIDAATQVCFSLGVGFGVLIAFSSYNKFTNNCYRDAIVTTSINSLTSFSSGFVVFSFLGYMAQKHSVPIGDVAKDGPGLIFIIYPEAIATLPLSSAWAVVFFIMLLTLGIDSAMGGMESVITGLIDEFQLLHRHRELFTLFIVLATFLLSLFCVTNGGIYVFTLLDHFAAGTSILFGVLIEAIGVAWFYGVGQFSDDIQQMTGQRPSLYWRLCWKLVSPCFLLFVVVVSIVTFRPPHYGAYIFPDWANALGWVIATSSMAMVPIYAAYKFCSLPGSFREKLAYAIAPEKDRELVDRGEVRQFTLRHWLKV

`CNCCCC1Cc2ccccc2N(c2cccc(Cl)c2)C1=O` (racemic) was tested, and the pKi [1] was < 6.70, the pKi [2] was 7.10 and the Activity [3] was 7%. For the same compound, the pKi [4] was < 7.00 and the Activity [5] was 64%.

`CNCCC1Cc2ccccc2N(c2ccccc2)C1=O` (single isomer, unassigned; isomer 1) [listing 1 of 2 here] was tested, and the pKi [1] was < 6.70, the pKi [2] was 7.42 and the pKi [4] was < 7.00.

`CNCCC1Cc2ccccc2N(c2ccccc2)C1=O` (single isomer, unassigned; isomer 1) [listing 2 of 2 here] showed an Activity [3] of 1% and an Activity [5] of 13%.

`CNCCCC1Cc2ccccc2N(c2ccccc2)C1=O` (single isomer, unassigned; isomer 1) [listing 1 of 2 here] showed an Activity [3] of 5% and an Activity [5] of 11%.

`CNCCCC1Cc2ccccc2N(c2ccccc2)C1=O` (stereo in doubt) [listing 1 of 2 here] gave an Activity [3] of 4% and an Activity [5] of 5%.

With `CNCCCC1Cc2ccccc2N(c2ccccc2)C1=O` (racemic) [listing 1 of 2 here] the Activity [3] was 0% and the Activity [5] was 24%.

With `CCCCC1(CCCNC)Cc2ccccc2N(c2ccc(C)cc2)C1=O` (racemic) the pKi [1] was < 6.70, the pKi [2] was 8.10 and the Activity [5] was 18%.

For `CNCCCC1(C)Cc2ccccc2N(c2ccc(C(C)C)cc2)C1=O` (racemic), the pKi [1] was < 6.70, the pKi [2] was < 6.70 and the Activity [3] was 5%. For the same compound, the pKi [4] was < 7.00, the Activity [6] was 18% and the Activity [5] was 2%.

With `CNCCCC1(C)Cc2ccccc2N(c2cc(F)cc(F)c2)C1=O` (racemic) the pKi [1] was < 6.70, the pKi [2] was 6.78 and the Activity [3] was 9%. For the same compound, the pKi [4] was < 7.00 and the Activity [5] was 19%.

With `CNCCCC1(C)Cc2ccccc2N(c2ccccc2)C1=O` (racemic) the pKi [1] was < 6.70, the pKi [2] was 7.36 and the Activity [3] was 9%. For the same compound, the pKi [4] was < 7.00 and the Activity [5] was 10%.

`CNCCCC1Cc2ccccc2N(c2ccccc2)C1=O` (stereo in doubt) [listing 2 of 2 here] was tested, and the pKi [1] was < 6.70, the pKi [2] was 6.72 and the pKi [4] was < 7.00.

With `CNCCCC1(C)Cc2ccccc2N(c2ccc(C)cc2)C1=O` (racemic) the pKi [1] was < 6.70, the pKi [2] was 8.05 and the Activity [3] was 12%. The pKi [4] was < 7.00 and the Activity [5] was 3%.

With `CNCCCC1Cc2ccccc2N(c2ccccc2)C1=O` (single isomer, unassigned; isomer 1) [listing 2 of 2 here] the pKi [1] was < 6.70, the pKi [2] was 8.10 and the pKi [4] was < 7.00.

For `CNCCCCC1Cc2ccccc2N(c2ccccc2)C1=O` (centres undefined), the pKi [1] was < 6.70, the pKi [2] was < 6.70 and the Activity [3] was -3%. For the same compound, the pKi [4] was < 7.00, the Activity [6] was 53% and the Activity [5] was 12%.

With `CNCCCC1(C)Cc2ccccc2N(c2cc(Cl)cc(Cl)c2)C1=O` (racemic) the pKi [1] was < 6.70, the pKi [2] was < 6.70 and the Activity [3] was 10%. For the same compound, the pKi [4] was < 7.00, the Activity [6] was 39% and the Activity [5] was 41%.

`CCc1ccc(N2C(=O)C(CCCNC)Cc3ccccc32)cc1` (racemic) was tested, and the pKi [1] was < 6.70, the pKi [2] was 6.82 and the Activity [3] was 3%. For the same compound, the pKi [4] was < 7.00 and the Activity [5] was 9%.

For `CNCCCC1Cc2ccccc2N(c2ccc(Cl)cc2)C1=O` (centres undefined), the pKi [1] was < 6.70, the pKi [2] was 7.68 and the Activity [3] was 8%. For the same compound, the pKi [4] was < 7.00 and the Activity [5] was 50%.

Compound `CNCCC1Cc2ccccc2N(c2ccccc2)C1=O` (stereo in doubt) [listing 1 of 2 here] has an Activity [3] of 9% and an Activity [5] of 9%.

In the case of `CCC1(CCCNC)Cc2ccccc2N(c2ccc(C)cc2)C1=O` (racemic), the pKi [1] was < 6.70, the pKi [2] was 7.77 and the Activity [3] was 11%. The pKi [4] was < 7.00 and the Activity [5] was 11%.

With `CNCCCC1Cc2ccccc2N(c2ccc(C)cc2)C1=O` (racemic) the pKi [1] was < 6.70, the pKi [2] was 8.52 and the Activity [3] was 15%. The pKi [4] was < 7.00 and the Activity [5] was 19%.

For `CNCCCC1(C)Cc2ccccc2N(c2ccc(F)c(F)c2)C1=O` (racemic), the pKi [1] was < 6.70, the pKi [2] was 7.11 and the Activity [3] was 11%. For the same compound, the pKi [4] was < 7.00 and the Activity [5] was 50%.

`CCC1(CCCNC)Cc2cc(Cl)ccc2N(c2ccc(C)cc2)C1=O` (racemic) was tested, and the pKi [1] was < 6.70, the pKi [2] was 7.33 and the pKi [4] was 6.89. For the same compound, the Activity [5] was 3%.

With `CCC1(CCCNC)Cc2ccccc2N(c2ccccc2)C1=O` (racemic) the pKi [1] was < 6.70, the pKi [2] was 8.00 and the Activity [3] was 12%. The pKi [4] was < 7.00 and the Activity [5] was 6%.

For `CNCCCC1Cc2ccccc2N(c2ccc(Cl)c(Cl)c2)C1=O` (racemic), the pKi [1] was 7.89, the pKi [2] was 7.21 and the Activity [3] was 8%. For the same compound, the pKi [4] was < 7.00.

For `CNCCCC1Cc2ccccc2N(c2ccc(F)cc2)C1=O` (racemic), the pKi [1] was < 6.70, the pKi [2] was 7.04 and the Activity [3] was 7%. For the same compound, the pKi [4] was < 7.00 and the Activity [5] was 5%.

`CNCCCC1(C)Cc2cc(Cl)ccc2N(c2ccc(C)cc2)C1=O` (racemic) was tested, and the pKi [2] was 7.37, the Activity [3] was 15% and the pKi [4] was < 7.00.

For `CCCC1(CCCNC)Cc2ccccc2N(c2ccc(C)cc2)C1=O` (racemic), the pKi [1] was < 6.70, the pKi [2] was 7.96 and the pKi [4] was 6.80. It also gave an Activity [5] of 9%.

In the case of `CCCC1(CCCNC)Cc2ccccc2N(c2ccccc2)C1=O` (racemic), the pKi [1] was < 6.70, the pKi [2] was 8.15 and the Activity [3] was 51%. The pKi [4] was < 7.00 and the Activity [5] was 3%.

In the case of `CNCCCC1(C)Cc2ccccc2N(c2cccc(C)c2)C1=O` (racemic), the pKi [1] was < 6.70, the pKi [2] was 6.84 and the Activity [3] was 9%. The pKi [4] was < 7.00 and the Activity [5] was 9%.

With `CNCCCC1(C(C)C)Cc2ccccc2N(c2ccc(C)cc2)C1=O` (racemic) the pKi [1] was < 6.70, the pKi [2] was 6.82 and the Activity [5] was 7%.

For `CNCCCC1Cc2ccccc2N(c2ccc(C(F)(F)F)cc2)C1=O` (racemic), the pKi [1] was < 6.70, the pKi [2] was 5.84 and the Activity [3] was 1%. The pKi [4] was < 7.00 and the Activity [5] was 12%.

For `CNCCCC1Cc2ccccc2N(c2cccc(F)c2)C1=O` (racemic), the pKi [1] was < 6.70, the pKi [2] was 7.74 and the Activity [3] was 9%. The pKi [4] was < 7.00 and the Activity [5] was 10%.

`CNCCCC1Cc2ccccc2N(c2ccccc2)C1=O` (racemic) [listing 2 of 2 here] was tested, and the pKi [1] was < 6.70, the pKi [2] was 8.00 and the pKi [4] was < 7.00.

For `CNCCC1Cc2ccccc2N(c2ccccc2)C1=O` (stereo in doubt) [listing 2 of 2 here], the pKi [1] was < 6.70, the pKi [2] was 7.27 and the pKi [4] was < 7.00.

For `CNCCCC1Cc2cc(Cl)ccc2N(c2ccc(C)cc2)C1=O` (racemic), the pKi [1] was < 6.70, the pKi [2] was 8.22 and the Activity [3] was 15%. For the same compound, the pKi [4] was < 7.00 and the Activity [5] was 7%.

With `CNCCCC1Cc2cc(F)ccc2N(c2ccc(C)cc2)C1=O` (racemic) the pKi [1] was < 6.70, the pKi [2] was 8.30 and the Activity [3] was 45%. The pKi [4] was < 7.00 and the Activity [5] was 5%.
